From patent US12077503B2, “Substituted cyclic amides and their use as herbicides” (FMC CORPORATION, priority 2015, dated 2024)
Like-named read-outs stand apart in the source and are kept apart here.

Tests used:
Format in all cases: in vivo
[1] = system: pigweed (Amaranthus retroflexus); assay: Test A preemergence; details: Amaranthus retroflexus, pre-emergence, 240 h; for pest or weed control at 125 g/ha: 125 g ai/ha, 0 to 100 scale where 0 is no effect and 100 is complete control; for pest or weed control at 500 g/ha: 500 g ai/ha
[2] = system: Galium (catchweed bedstraw, Galium aparine); assay: Test A postemergence; details: Galium, post-emergence, 240 h; for pest or weed control at 125 g/ha: 125 g ai/ha, postemergence
How it was run: (§1)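 Compounds were formulated in a non-phytotoxic solvent mixture with surfactant and applied as a preemergence directed soil spray after seeding, or sprayed postemergence over plants 2 to 10 cm tall at the one- to two-leaf stage. Evaluation after about 10 d compared treated with untreated controls, using a scale from 0 (no effect) to 100 (complete control).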

Kochia (Kochia scoparia) = assay: Test A postemergence; details: Bassia scoparia, post-emergence, 240 h; for pest or weed control at 125 g/ha: 125 g ai/ha, postemergence
How it was run: as §1

[3] = system: barnyardgrass (Echinochloa crus-galli); assay: Test A postemergence; details: Echinochloa crus-galli, post-emergence, 240 h; for pest or weed control at 125 g/ha: 125 g ai/ha, postemergence
How it was run: as §1

[4] = system: blackgrass (Alopecurus myosuroides); assay: Test A postemergence; details: Alopecurus myosuroides, post-emergence, 240 h; for pest or weed control at 125 g/ha: 125 g ai/ha, postemergence
How it was run: as §1

corn (Zea mays) = assay: Test A postemergence; details: Zea mays, post-emergence, 240 h; for plant injury at 125 g/ha: visual injury rating after approximately 10 d, read-out: Corn plant response rating (0 to 100 scale, 0 no effect, 100 complete control)
How it was run: as §1

[5] = system: giant foxtail (Setaria faberii); assay: Test A postemergence; details: Setaria faberi, post-emergence, 240 h; for pest or weed control at 125 g/ha: 125 g ai/ha, postemergence
How it was run: as §1

[6] = system: pigweed (Amaranthus retroflexus); assay: Test A postemergence; details: Amaranthus retroflexus, post-emergence, 240 h; for pest or weed control at 125 g/ha: 125 g ai/ha, postemergence
How it was run: as §1

[7] = system: ragweed (common ragweed, Ambrosia elatior); assay: Test A postemergence; details: Ambrosia artemisiifolia, post-emergence, 240 h; for pest or weed control at 125 g/ha: 125 g ai/ha, postemergence
How it was run: as §1

[8] = system: ryegrass, Italian (Italian ryegrass, Lolium multiflorum); assay: Test A postemergence; details: Lolium multiflorum, post-emergence, 240 h; for pest or weed control at 125 g/ha: 125 g ai/ha, postemergence
How it was run: as §1

[9] = system: wheat (Triticum aestivum); assay: Test A postemergence; details: Triticum aestivum, post-emergence, 240 h; for plant injury at 125 g/ha: 125 g ai/ha, postemergence
How it was run: as §1

[10] = system: barnyardgrass (Echinochloa crus-galli); assay: Test B flooded paddy test; details: Flood, 250 g ai/ha; for pest or weed control at 250 g/ha: Echinochloa crus-galli, scale of 0 to 100 where 0 is no effect and 100 is complete control, read-out: Barnyardgrass plant response rating
How it was run: (§2)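 Greenhouse paddy pots with 2-leaf stage plants received compound by direct addition to floodwater 3 cm deep, kept at that level. Scored visually at 13–15 d versus controls (0 no effect; 100 complete control).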

[11] = system: ducksalad (Heteranthera limosa); assay: Test B flooded paddy test; details: Flood, 250 g ai/ha; for pest or weed control at 250 g/ha: Heteranthera limosa, scale of 0 to 100 where 0 is no effect and 100 is complete control, read-out: Ducksalad plant response rating
How it was run: as §2

rice (Oryra sativa) = assay: Test B flooded paddy test; details: Flood, 250 g ai/ha; for pest or weed control at 250 g/ha: Oryza sativa, scale of 0 to 100 where 0 is no effect and 100 is complete control, read-out: Rice plant response rating
How it was run: as §2

[12] = system: sedge, umbrella (small-flower umbrella sedge, Cyperus difformis); assay: Test B flooded paddy test; details: Flood, 250 g ai/ha; for pest or weed control at 250 g/ha: Cyperus difformis, scale of 0 to 100 where 0 is no effect and 100 is complete control, read-out: Sedge, Umbrella plant response rating
How it was run: as §2

[13] = preemergence, read-out: Pigweed plant response rating
[14] = Preemergence, visual injury vs untreated controls after approximately 10 d, read-out: Pigweed plant response rating (0 to 100 scale where 0 is no effect and 100 is complete control)
[15] = visual injury rating after approximately 10 d, read-out: Galium plant response rating (0 to 100 scale, 0 no effect, 100 complete control)
[16] = visual injury rating after approximately 10 d, read-out: Kochia plant response rating (0 to 100 scale, 0 no effect, 100 complete control)
[17] = visual injury rating after approximately 10 d, read-out: Barnyardgrass plant response rating (0 to 100 scale, 0 no effect, 100 complete control)
[18] = visual injury rating after approximately 10 d, read-out: Blackgrass plant response rating (0 to 100 scale, 0 no effect, 100 complete control)
[19] = visual injury rating after approximately 10 d, read-out: Foxtail, Giant plant response rating (0 to 100 scale, 0 no effect, 100 complete control)
[20] = visual injury rating after approximately 10 d, read-out: Pigweed plant response rating (0 to 100 scale, 0 no effect, 100 complete control)
[21] = visual injury rating after approximately 10 d, read-out: Ragweed plant response rating (0 to 100 scale, 0 no effect, 100 complete control)
[22] = visual injury rating after approximately 10 d, read-out: Ryegrass, Italian plant response rating (0 to 100 scale, 0 no effect, 100 complete control)
[23] = visual injury rating after approximately 10 d, read-out: Wheat plant response rating (0 to 100 scale, 0 no effect, 100 complete control)
[24] = 0 to 100 scale where 0 is no effect and 100 is complete control, 13 to 15 d

COc1cc(C(F)(F)F)ccc1[C@H]1CN(C)C(=O)[C@@H]1C(=O)Nc1ccccc1F [Compound 858]
pest or weed control at 125 g/ha [1, 13]: 20% | pest or weed control at 500 g/ha [1, 14]: 50% | pest or weed control at 125 g/ha [2, 15]: 30% | pest or weed control at 125 g/ha (Kochia (Kochia scoparia); [16]): 20% | pest or weed control at 125 g/ha [3, 17]: 80% | pest or weed control at 125 g/ha [4, 18]: 0% | plant injury at 125 g/ha (corn (Zea mays); 125 g ai/ha, postemergence): 20% | pest or weed control at 125 g/ha [5, 19]: 80% | pest or weed control at 125 g/ha [6, 20]: 20% | pest or weed control at 125 g/ha [7, 21]: 0% | pest or weed control at 125 g/ha [8, 22]: 20% | plant injury at 125 g/ha [9, 23]: 20% | pest or weed control at 250 g/ha [10]: 45% | pest or weed control at 250 g/ha [11]: 100% | pest or weed control at 250 g/ha (rice (Oryra sativa)): 0% | pest or weed control at 250 g/ha [12]: 0%

CN1C[C@H](c2ccc(F)c(F)c2)[C@@H](C(=O)Nc2ccccc2F)C1=O [Compound 596, (3S,4S)-4-(3,4-difluorophenyl)-N-(2-fluorophenyl)-1-methyl-2-oxo-3-pyrrolidinecarboxamide]
pest or weed control at 125 g/ha ([1]; Preemergence, visual injury after approximately 10 d, read-out: Plant response rating, Pigweed): 0% | pest or weed control at 500 g/ha ([1]; Preemergence, visual injury approx. 10 d, read-out: Pigweed plant response rating (0 to 100 scale, 0 is no effect, 100 is complete control)): 40% | pest or weed control at 125 g/ha ([2]; visual rating after approx. 10 d, 0 to 100 scale (0 no effect, 100 complete control), read-out: Plant response rating, Galium): 30% | pest or weed control at 500 g/ha ([2]; Postemergence, 500 g ai/ha, 0 to 100 scale where 0 is no effect and 100 is complete control, read-out: Plant response rating, Galium): 50% | pest or weed control at 125 g/ha (Kochia (Kochia scoparia); visual rating after approx. 10 d, 0 to 100 scale (0 no effect, 100 complete control), read-out: Plant response rating, Kochia): 40% | pest or weed control at 500 g/ha (Kochia (Kochia scoparia); Postemergence, 500 g ai/ha, 0 to 100 scale where 0 is no effect and 100 is complete control, read-out: Plant response rating, Kochia): 60% | pest or weed control at 125 g/ha ([3]; visual rating after approx. 10 d, 0 to 100 scale (0 no effect, 100 complete control), read-out: Plant response rating, Barnyardgrass): 90% | pest or weed control at 500 g/ha ([3]; Postemergence, 500 g ai/ha, 0 to 100 scale where 0 is no effect and 100 is complete control, read-out: Plant response rating, Barnyardgrass): 90% | pest or weed control at 125 g/ha ([4]; visual rating after approx. 10 d, 0 to 100 scale (0 no effect, 100 complete control), read-out: Plant response rating, Blackgrass): 20% | pest or weed control at 500 g/ha ([4]; Postemergence, 500 g ai/ha, 0 to 100 scale where 0 is no effect and 100 is complete control, read-out: Plant response rating, Blackgrass): 50% | Corn plant response rating (crop injury, 0 = no effect, 100 = complete kill) at 125 g/ha (corn (Zea mays); 125 g ai/ha, postemergence, visual rating after approx. 10 d, 0 to 100 scale (0 no effect, 100 complete control)): 20% | Corn plant response rating (crop injury, 0 = no effect, 100 = complete kill) at 500 g/ha (corn (Zea mays); Postemergence, 500 g ai/ha, 0 to 100 scale where 0 is no effect and 100 is complete control): 60% | pest or weed control at 125 g/ha ([5]; visual rating after approx. 10 d, 0 to 100 scale (0 no effect, 100 complete control), read-out: Plant response rating, Foxtail, Giant): 90% | pest or weed control at 500 g/ha ([5]; Postemergence, 500 g ai/ha, 0 to 100 scale where 0 is no effect and 100 is complete control, read-out: Plant response rating, Foxtail, Giant): 90% | pest or weed control at 125 g/ha ([6]; visual rating after approx. 10 d, 0 to 100 scale (0 no effect, 100 complete control), read-out: Plant response rating, Pigweed): 0% | pest or weed control at 500 g/ha ([6]; Postemergence, 500 g ai/ha, 0 to 100 scale where 0 is no effect and 100 is complete control, read-out: Plant response rating, Pigweed): 20% | pest or weed control at 125 g/ha ([7]; visual rating after approx. 10 d, 0 to 100 scale (0 no effect, 100 complete control), read-out: Plant response rating, Ragweed): 0% | pest or weed control at 500 g/ha ([7]; Postemergence, 500 g ai/ha, 0 to 100 scale where 0 is no effect and 100 is complete control, read-out: Plant response rating, Ragweed): 0% | pest or weed control at 125 g/ha ([8]; visual rating after approx. 10 d, 0 to 100 scale (0 no effect, 100 complete control), read-out: Plant response rating, Ryegrass, Italian): 0% | pest or weed control at 500 g/ha ([8]; Postemergence, 500 g ai/ha, 0 to 100 scale where 0 is no effect and 100 is complete control, read-out: Plant response rating, Ryegrass, Italian): 40% | plant injury at 125 g/ha ([9]; visual rating after approx. 10 d, 0 to 100 scale (0 no effect, 100 complete control), read-out: Plant response rating, Wheat): 0% | plant injury at 500 g/ha ([9]; Postemergence, 500 g ai/ha, 0 to 100 scale where 0 is no effect and 100 is complete control, read-out: Plant response rating, Wheat): 50% | Plant response rating, Barnyardgrass [10, 24]: 95 | Plant response rating, Ducksalad [11, 24]: 100 | Plant response rating, Rice (rice (Oryra sativa); [24]): 0 | Plant response rating, Sedge, Umbrella [12, 24]: 0

COc1c(F)ccc([C@H]2CN(C)C(=O)[C@@H]2C(=O)Nc2cccc(F)c2F)c1Cl [Compound 893]
pest or weed control at 125 g/ha [1, 13]: 30% | pest or weed control at 500 g/ha [1, 14]: 50% | pest or weed control at 125 g/ha [2, 15]: 50% | pest or weed control at 125 g/ha (Kochia (Kochia scoparia); [16]): 60% | pest or weed control at 125 g/ha [3, 17]: 100% | pest or weed control at 125 g/ha [4, 18]: 30% | plant injury at 125 g/ha (corn (Zea mays); 125 g ai/ha, postemergence): 80% | pest or weed control at 125 g/ha [5, 19]: 90% | pest or weed control at 125 g/ha [6, 20]: 20% | pest or weed control at 125 g/ha [7, 21]: 30% | pest or weed control at 125 g/ha [8, 22]: 60% | plant injury at 125 g/ha [9, 23]: 30% | pest or weed control at 250 g/ha [10]: 90% | pest or weed control at 250 g/ha [11]: 90% | pest or weed control at 250 g/ha (rice (Oryra sativa)): 10% | pest or weed control at 250 g/ha [12]: 0%

COc1c(F)ccc([C@H]2CN(C)C(=O)[C@@H]2C(=O)Nc2ccc(F)cc2F)c1Cl [Compound 894]
pest or weed control at 125 g/ha [1, 13]: 20% | pest or weed control at 500 g/ha [1, 14]: 50% | pest or weed control at 125 g/ha [2, 15]: 40% | pest or weed control at 125 g/ha (Kochia (Kochia scoparia); [16]): 50% | pest or weed control at 125 g/ha [3, 17]: 90% | pest or weed control at 125 g/ha [4, 18]: 0% | plant injury at 125 g/ha (corn (Zea mays); 125 g ai/ha, postemergence): 60% | pest or weed control at 125 g/ha [5, 19]: 90% | pest or weed control at 125 g/ha [6, 20]: 0% | pest or weed control at 125 g/ha [7, 21]: 0% | pest or weed control at 125 g/ha [8, 22]: 50% | plant injury at 125 g/ha [9, 23]: 20% | pest or weed control at 250 g/ha [10]: 70% | pest or weed control at 250 g/ha [11]: 100% | pest or weed control at 250 g/ha (rice (Oryra sativa)): 0% | pest or weed control at 250 g/ha [12]: 0%
